Data taken from article PMC7465040, “Cytotoxic and Anti-Plasmodial Activities of Stephania dielsiana Y.C. Wu Extracts and the Isolated Compounds” (Molecules, 2020).
Where two headings read alike, the source gives them in different places.

Key:
MCF7 = assay: SRB cell proliferation assay, MCF7; assay type: cell-based, human; details: for IC50: Homo sapiens, MCF7, 72 h, read-out: IC50 (μM ± SD) MCF7
Experimental: (§1) In vitro anticancer study: The in vitro anti-proliferative tests were carried out as described previously, using aliquots of the cell lines used therein. Briefly, HeLa, MDA-MB-231 and MDA-MB-468, MCF7, and 184B5 and MCF 10A cell lines were purchased from ATCC. The identity of the cell lines presented in this study were verified by short tandem repeat profiling by Genetica DNA Laboratories (www.celllineauthentication.com) (April 8, 2015). MCF10A was grown in DMEM F12 medium supplemented with 0.02 μg/mL epidermal growth factor, 10% FBS, 10 μg/mL insulin and […] hydrocortisone. MDA-MB-468 were grown in DMEM supplemented with 10% FBS and antibiotics cocktail (100 μg/mL streptomycin, 100 units/mL penicillin and 250 ng/mL amphotericin B). SRB cell proliferation assays were carried out as previously described, with some minor modifications. The concentration range for all tested cell lines were from 100–0.39 μg/mL for extracts and 100–0.39 μM for pure compounds. […] All experiments were carried out at least twice.

MCF 10A = assay: SRB cell proliferation assay, MCF10A non-cancer cells; assay type: cell-based; details: Homo sapiens, read-out: IC50 (μM ± SD) MCF 10A
Experimental: as §1

[1] = test system: chloroquine-resistant W2 P. falciparum strain; assay: In vitro anti-plasmodial assay (HRP2 ELISA), W2; assay type: cell-based, Plasmodium falciparum; details: for IC50: Plasmodium falciparum, W2, 72 h, read-out: IC50 (μM ± SD) W2; for SI W2 184B5: selectivity index between 184B5 and parasites W2
Experimental: (§2) Parasites were grown in A-positive human blood (Etablissement Français du Sang, Marseille, France) under controlled atmospheric conditions that consisted of 10% O2, 5% CO2, and 85% N2 at 37 °C with a humidity of 95%.
(§3) In vitro anti-plasmodial assay: The two P. falciparum strains 3D7 and W2 were synchronized twice with sorbitol before use. The clonality of these strains was verified both in our laboratory and in an independent laboratory from the Worldwide Anti-malarial Resistance Network (WWARN) by PCR genotyping of the polymorphic genetic markers msp1 and msp2 and microsatellite loci. The compounds were re-suspended in methanol or DMSO 5% (v/v) and then diluted in methanol to obtain final concentrations ranging from 0.008 to 500 μg/mL (final concentration of 0.5% of methanol or DMSO). […] The plates were incubated for 72 h at 37 °C in controlled atmospheric conditions 5% CO2, 10% O2, and […]. After thawing the plates, haemolysed cultures were homogenized by vortexing the plates. Both the success of the drug susceptibility assay and the appropriate volume of haemolysed culture to use for each assay were determined for each clinical isolate during a preliminary HRP2 ELISA. Both the pre-test and subsequent ELISA assays were performed using a commercial kit (Malaria Ag Celisa, ref KM2159, Cellabs PTY LTD, Brookvale, Australia) according to the manufacturer’s recommendation. The optical density (OD) of each sample was measured with a spectrophotometer (Safire 2, Tecan, Lyon, France). […] The anti-plasmodial in vitro assay was performed five times for each product. The IC50 values represented the mean value calculated from five experiments. According to Hout, a selectivity index (SI) was based on the ratio between anti-parasitic and cytotoxic activities. In the case of our study, a SI was calculated between non-tumorigenic cell line 184B5 and parasites 3D7 or W2 and/or MCF10A and these two parasites.

184B5 = assay: SRB cell proliferation assay, 184B5 non-cancer cells; assay type: cell-based, human; details: Homo sapiens
Experimental: as §1

MDA-MB-231 = assay: SRB cell proliferation assay, MDA-MB-231; assay type: cell-based, human; details: for IC50: Homo sapiens, MDA-MB-231, 72 h, read-out: IC50 (μM ± SD) MDA-MB-231
Experimental: as §1

[2] = test system: chloroquine-susceptible 3D7 P. falciparum strain; assay: In vitro anti-plasmodial assay (HRP2 ELISA), 3D7; assay type: cell-based, Plasmodium falciparum; details: for IC50: Plasmodium falciparum, 3D7, 72 h, read-out: IC50 (μM ± SD) 3D7; for SI 3D7 184B5: selectivity index between 184B5 and parasites 3D7
Experimental: as §2, §3

MDA-MB-468 = assay: SRB cell proliferation assay, MDA-MB-468; assay type: cell-based, human; details: for IC50: Homo sapiens, MDA-MB-468, 72 h, read-out: IC50 (μM ± SD) MDA-MB-468
Experimental: as §1

HeLa = assay: SRB cell proliferation assay, HeLa; assay type: cell-based, human; details: for IC50: Homo sapiens, HeLa, 72 h, read-out: IC50 (μM ± SD) HeLa
Experimental: as §1

[3] = test system: Plasmodium falciparum 3D7 and W2 strains; assay: In vitro anti-plasmodial assay, both strains; assay type: cell-based
Experimental: as §2, §3

[4] = test system: HeLa, MDA-MB231, MDA-MB-468, MCF7, 184B5 and MCF10A cell lines; assay: SRB cell proliferation assay, whole panel of cell lines; assay type: cell-based, human; details: Homo sapiens, read-out: IC50 values, range over the cell lines examined
Experimental: as §1

[5] = 184B5, 72 h, read-out: IC50 (μM ± SD) 184B5
[6] = 184B5, read-out: IC50 (μM ± SD) 184B5
[7] = 72 h, HRP2 ELISA, mean of five experiments

Compound: CCN(CC)CCCC(C)Nc1ccnc2cc(Cl)ccc12 (stereo not drawn) [Chloroquine, reference compound]
- IC50 (MCF7): > 50 µM
- IC50 (MCF 10A; 72 h): 40.5 ± 9.8 µM
- IC50 (MCF 10A): 40.5 ± 9.8 µM
- IC50 [1]: 0.38 ± 0.03 µM
- IC50 (184B5; [5]): > 50 µM
- IC50 (184B5; [6]): > 50 µM
- IC50 (MDA-MB-231): 28.9 ± 0.4 µM
- IC50 [2]: 0.021 ± 0.005 µM
- IC50 (MDA-MB-468): 33.2 ± 0.4 µM
- IC50 (HeLa): 29.8 ± 0.7 µM

Compound: COc1ccc2c(c1OC)CC1c3c(cc4c(c3-2)OCO4)CCN1C (stereo not drawn) [Crebanine 4, crebanine]
- IC50 (MCF7): 30.5 ± 4.89 µM
- Selectivity index (SI) 184B5 versus MCF7 (MCF7; Table 2B, non-cancer 184B5 vs cancer MCF7): 1.56
- Selectivity index (SI) MCF10A versus MCF7 (MCF7; Table 2B, non-cancer MCF10A vs cancer MCF7): 1.55
- IC50 (MCF 10A; 72 h): 47.2 ± 4.37 µM
- IC50 (MCF 10A): 47.2 ± 4.37 µM
- IC50 [1]: 2.16 ± 0.38 µM
- SI W2 184B5 ([1]; Table 3): 21.96
- SI W2 MCF10A ([1]; Table 3, selectivity index between MCF10A and parasites W2): 21.83
- IC50 (184B5; [5]): 47.4 ± 2.83 µM
- IC50 (184B5; [6]): 47.4 ± 2.83 µM
- Anti-plasmodial activity against both 3D7 and W2 (in words) [3]: strong activity
- IC50 (MDA-MB-231): 38.9 ± 7.1 µM
- Selectivity index (SI) 184B5 versus MDA-MB-231 (MDA-MB-231; Table 2B, non-cancer 184B5 vs cancer MDA-MB-231): 1.22
- Selectivity index (SI) MCF10A versus MDA-MB-231 (MDA-MB-231; Table 2B, non-cancer MCF10A vs cancer MDA-MB-231): 1.21
- IC50 [4]: 17 to 48 µM
- IC50 [2]: 1.56 ± 0.22 µM
- SI 3D7 184B5 ([2]; Table 3): 30.41
- SI 3D7 MCF10A ([2]; Table 3, selectivity index between MCF10A and parasites 3D7): 30.23
- Selective index SI on 3D7 strain ([2]; vs 184B5 and MCF10A): > 20
- IC50 (MDA-MB-468): 17.8 ± 4.63 µM
- Selectivity index (SI) 184B5 versus MDA-MB-468 (MDA-MB-468; Table 2B, non-cancer 184B5 vs cancer MDA-MB-468): 2.66
- Selectivity index (SI) MCF10A versus MDA-MB-468 (MDA-MB-468; Table 2B, non-cancer MCF10A vs cancer MDA-MB-468): 2.65
- IC50 (HeLa): 48.1 ± 2.38 µM
- Selectivity index (SI) 184B5 versus HeLa (HeLa; Table 2B, non-cancer 184B5 vs cancer HeLa): 0.99
- Selectivity index (SI) MCF10A versus HeLa (HeLa; Table 2B, non-cancer MCF10A vs cancer HeLa): 0.98

Compound: C[C@H]1[C@@H](O)O[C@@H]2O[C@@]3(C)CC[C@H]4[C@H](C)CC[C@@H]1[C@@]24OO3 [Dihydroartemisinin, reference compound]
- IC50 [1, 7]: 0.002 ± 0.001 µM
- IC50 [2, 7]: 0.002 ± 0.001 µM

Compound: OC(c1cc(C(F)(F)F)nc2c(C(F)(F)F)cccc12)C1CCCCN1 (stereo not drawn) [Mefloquine, reference compound]
- IC50 [1, 7]: 0.022 ± 0.006 µM
- SI W2 184B5 ([1]; Table 3): 490.9
- IC50 (184B5; 184B5, Table 3, non-cancer cell line, read-out: IC50 (μM ± SD) 184B5): 10.8 ± 0.75 µM
- IC50 [2, 7]: 0.052 ± 0.009 µM
- SI 3D7 184B5 ([2]; Table 3): 207.6
